From US20200222474A1, “COMPOSITIONS AND METHODS FOR INCREASING PHYTOCHEMICAL BIOAVAILABLITY AND BIOACTIVITY” (North Carolina State University, priority 2017, published 2020)

Tested on: L. acidophilus NCFM
Assay: RNA-seq transcriptional analysis of L. acidophilus NCFM growing on plant glycosides
Format: cell-based, Lactobacillus acidophilus
[1] = gene LBA1206 (Hypothetical protein)
[2] = gene LBA1401 (Peroxidase (Npx))
[3] = gene LBA1435 (Hypothetical protein)
[4] = gene LBA1455 (Putative surface layer protein)
[5] = gene LBA1469 (UDP-glucose 4-epimerase)
[6] = gene LBA1656 (Hypothetical protein)
[7] = gene LBA1675 (Hypothetical protein)
[8] = gene LBA1676 (ATP-dependent helicase)
[9] = gene LBA1683 (Putative magnesium-transporting atpase)
[10] = gene LBA1704 (N-Acetylmuramic acid-6-phosphate etherase)
[11] = gene LBA1740 (Hypothetical protein)
[12] = gene LBA1752 (Hypothetical protein)
[13] = gene LBA1769 (Hypothetical protein)
[14] = gene LBA1793 (Hypothetical protein)
[15] = gene LBA1869 (Beta-phosphoglueomutase)
[16] = gene LBA1895 (Hypothetical protein)
[17] = nTPM on plant glycoside relative to glucose, mid-exponential phase

OCc1ccccc1O[C@@H]1O[C@H](CO)[C@@H](O)[C@H](O)[C@H]1O [Salicin]
Transcripts per million (rpm) (gene LBA1027 (Oxidoreductase)): 2726.8 rpm | Log2 differential normalized TPM ratio compared to glucose [1]: 1.5 | Log2 differential normalized TPM ratio compared to lactose [1]: 0.3 | Transcripts per million (rpm) [1]: 391.2 rpm | Log2 differential normalized TPM ratio compared to glucose [2]: 2.7 | Log2 differential normalized TPM ratio compared to lactose [2]: 0.6 | Transcripts per million (rpm) [2]: 466.6 rpm | Log2 differential normalized TPM ratio compared to glucose [3]: 3.6 | Log2 differential normalized TPM ratio compared to lactose [3]: −0.2 | Transcripts per million (rpm) [3]: 52.5 rpm | Log2 differential normalized TPM ratio compared to glucose [4]: 0.1 | Log2 differential normalized TPM ratio compared to lactose [4]: −1.6 | Transcripts per million (rpm) [4]: 18.3 rpm | Log2 differential normalized TPM ratio compared to glucose [5]: 1.4 | Log2 differential normalized TPM ratio compared to lactose [5]: −3.6 | Transcripts per million (rpm) [5]: 235.5 rpm | Log2 differential normalized TPM ratio compared to glucose [6]: 0.9 | Log2 differential normalized TPM ratio compared to lactose [6]: 0.3 | Transcripts per million (rpm) [6]: 38.2 rpm | Log2 differential normalized TPM ratio compared to glucose [7]: 2 | Log2 differential normalized TPM ratio compared to lactose [7]: 0.5 | Transcripts per million (rpm) [7]: 1669.1 rpm | Log2 differential normalized TPM ratio compared to glucose [8]: 1.7 | Log2 differential normalized TPM ratio compared to lactose [8]: 0.5 | Transcripts per million (rpm) [8]: 1070.6 rpm | Log2 differential normalized TPM ratio compared to glucose [9]: 0.3 | Log2 differential normalized TPM ratio compared to lactose [9]: 0.5 | Transcripts per million (rpm) [9]: 20.2 rpm | Log2 differential normalized TPM ratio compared to glucose [10]: 0.7 | Log2 differential normalized TPM ratio compared to lactose [10]: 0.1 | Transcripts per million (rpm) [10]: 11.6 rpm | Log2 differential normalized TPM ratio compared to glucose [11]: 0.3 | Log2 differential normalized TPM ratio compared to lactose [11]: −0.5 | Transcripts per million (rpm) [11]: 23.1 rpm | Log2 differential normalized TPM ratio compared to glucose [12]: 0.6 | Log2 differential normalized TPM ratio compared to lactose [12]: −0.3 | Transcripts per million (rpm) [12]: 13 rpm | Log2 differential normalized TPM ratio compared to glucose [13]: 1.8 | Log2 differential normalized TPM ratio compared to lactose [13]: −0.1 | Transcripts per million (rpm) [13]: 5527.5 rpm | Log2 differential normalized TPM ratio compared to glucose [14]: 1.2 | Log2 differential normalized TPM ratio compared to lactose [14]: −1.7 | Transcripts per million (rpm) [14]: 37.8 rpm | Log2 differential normalized TPM ratio compared to glucose (gene LBA1796 (ABC exporter)): 1 | Log2 differential normalized TPM ratio compared to lactose (gene LBA1796 (ABC exporter)): −1.6 | Transcripts per million (rpm) (gene LBA1796 (ABC exporter)): 18.3 rpm | Log2 differential normalized TPM ratio compared to glucose [15]: 2.4 | Log2 differential normalized TPM ratio compared to lactose [15]: −0.1 | Transcripts per million (rpm) [15]: 43.1 rpm | Log2 differential normalized TPM ratio compared to glucose [16]: 0.7 | Log2 differential normalized TPM ratio compared to lactose [16]: 0.5 | Transcripts per million (rpm) [16]: 46.2 rpm | Log2 Ratio vs Glc, LBA0225 Phospho-β-glucosidase (GH1) [17]: −0.1 | Log2 Ratio vs Glc, LBA0227 PTS EIIC [17]: 0.9 | Log2 Ratio vs Glc, LBA0228 Transcriptional regulator [17]: 0.1 | Log2 Ratio vs Glc, LBA0466 Phosphoenolpyruvate carboxykinase (ATP) [17]: 1.3 | Log2 Ratio vs Glc, LBA0491 PTS EIIC [17]: 1.5 | Log2 Ratio vs Glc, LBA0492 Hypothetical protein [17]: 2 | Log2 Ratio vs Glc, LBA0555 Myosin-cross-reactive antigen/Fatty acid hydratase [17]: 1.4 | Log2 Ratio vs Glc, LBA0606 PTS EIIBC [17]: 2.5 | Log2 Ratio vs Glc, LBA0631 Hypothetical protein [17]: 2.9 | Log2 Ratio vs Glc, LBA0724 Transcriptional regulator (antiterminator) [17]: 5.3 | Log2 Ratio vs Glc, LBA0725 PTS EIICBA [17]: 8.9 | Log2 Ratio vs Glc, LBA0726 Phospho-β-glucosidase (GH1) [17]: 6.2 | Log2 Ratio vs Glc, LBA0728 Hypothetical protein [17]: 4.1 | Log2 Ratio vs Glc, LBA0876 PTS EIIC [17]: 2.4 | Log2 Ratio vs Glc, LBA0877 PTS EIIA [17]: 1.3 | Log2 Ratio vs Glc, LBA1401 Peroxidase (Npx) [17]: 2.7 | Log2 Ratio vs Glc, LBA1411 Fumarate reductase flavoprotein subunit [17]: 1.4 | Log2 Ratio vs Glc, LBA1433 Dihydroxyacetone kinase [17]: 2.7 | Log2 Ratio vs Glc, LBA1434 Dihydroxyacetone kinase [17]: 3.3 | Log2 Ratio vs Glc, LBA1435 Hypothetical protein [17]: 3.6 | Log2 Ratio vs Glc, LBA1436 Glycerol uptake facilitator protein [17]: 3.8 | Log2 Ratio vs Glc, LBA1632 NAD-dependent aldehyde dehydrogenase [17]: 2 | Log2 Ratio vs Glc, LBA1684 PTS EIIA [17]: 2.6 | Log2 Ratio vs Glc, LBA1689 Maltose-6′-phosphate glucosidase (GH4) [17]: 3.7 | Log2 Ratio vs Glc, LBA1701 Melibiose operon regulatory protein [17]: 1 | Log2 Ratio vs Glc, LBA1709 Mucus binding protein precursor [17]: 0.5 | Log2 Ratio vs Glc, LBA1797 Hypothetical protein [17]: 1.3 | Log2 Ratio vs Glc, LBA1812 α-Glucosidase II (GH31) [17]: 2.2 | Log2 Ratio vs Glc, LBA1869 β-Phosphoglucomutase [17]: 2.4 | Log2 Ratio vs Glc, LBA1871 Neopullulanase (GH13) [17]: 0.9 | Log2 Ratio vs Glc, LBA1873 Acetate kinase [17]: 1.2 | Log2 Ratio vs Glc, LBA1974 Pyruvate oxidase [17]: 1.8
